Values of other authors in patent publication US7855190B2, “Methods of hormonal treatment utilizing contraceptive regimens with continuous estrogen administration” (Teva Women's Health, Inc., priority 2003, dated 2010).

Details: relative potency of estrogens

SMILES	amount roughly equivalent to 30 μg of ethinyl estradiol
C[C@]12CC[C@@H]3c4ccc(O)cc4CC[C@H]3[C@@H]1CC[C@@H]2O [17β-estradiol]	~2,000 μg
C#C[C@]1(O)CC[C@H]2[C@@H]3CCc4cc(OC)ccc4[C@H]3CC[C@@]21C [mestranol]	~60 µg

Same assay, conditions: relative potency of progestins

SMILES	amount equivalent to 0.050 mg of levonorgestrel
C#CC1(O)CC[C@H]2[C@@H]3CCC4=CC(=O)CC[C@@H]4[C@H]3CC[C@@]21CC (mixture of isomers) [norgestrel]	about 0.100 mg
C#C[C@]1(O)CC[C@H]2[C@@H]3CCC4=CC(=O)CC[C@@H]4[C@H]3C(=C)C[C@@]21CC [3-ketodesogestrel]	about 0.050 mg
C#C[C@]1(O)CC[C@H]2[C@@H]3CCC4=CCCC[C@@H]4[C@H]3C(=C)C[C@@]21CC [desogestrel]	about 0.050 mg
C#C[C@]1(O)C=C[C@H]2[C@@H]3CCC4=CC(=O)CC[C@@H]4[C@H]3CC[C@@]21CC [gestodene]	about 0.035 mg
C#C[C@]1(OC(C)=O)CC[C@H]2[C@@H]3CCC4=CC(=O)CC[C@@H]4[C@H]3CC[C@@]21C [norethindrone acetate]	about 0.175 mg
